From patent publication US20260294910A1, “ORAL PHARMACEUTICAL COMPOSITIONS” (Assembly Biosciences, Inc., priority 2023, published 2026)
Where two headings read alike, the source gives them in different places.

What was measured:
[1] = human, oral; cited from earlier work
[2] = test system: carbonic anhydrase I; test: carbonic anhydrase inhibition, CA I; assay type: biochemical
Description: Carbonic anhydrase inhibition can be measured using a carbonic anhydrase I assay as described in Katritzky et al. (J. Med. Chem. 1987, 30:2058) and a […] as described in Iyer et al. (J. Biomol. Screen 2006, 11:782).

[3] = test system: carbonic anhydrase II; test: carbonic anhydrase inhibition, CA II; assay type: biochemical
[4] = predicted human PK by allometric scaling; settings: allometric scaling from multiple species
[5] = Dog IV study with and without oral charcoal administration (Example 10); assay type: in vivo, male non-naïve Beagle dogs; settings: 0.10 mg/kg
Method: A 0.1 mg/mL solution of Compound 1 in 10% DMSO/10% Solutol HS15/80% Saline was prepared as follows: • 1) 4.63 mg Compound 1 was weighed into appropriately sized tube. • 2) 4.57 mL of DMSO was added into the tube. Vortexed for 2 minutes. • 3) 4.57 mL of Solutol HS15 was added into above tube. Vortexed for 2 minutes. • 4) 36.54 mL of saline was added. Vortex for 1 minute.
A 100 mg/mL suspension of Activated Charcoal in Saline was prepared as follows: • 1) 300 g Activated Charcoal was weighed into appropriately sized tube. • 2) 3000 mL of saline was added into the tube. • 3) Mixture was stirred for 10 minutes, and then sonicated for 10 minutes.
Two groups of Male non-naïve beagles were used for the dog PK study (n=2 per group). The prepared oral formulation was administered via oral administration with 25 gram dose of activated charcoal to Group 2 animals. Immediately after the PO administration, the prepared IV formulation was administered via 10 minutes IV infusion to both Group 1 and Group 2 animals with appropriate dosing volume to achieve the respective doses. Group 1 animals were fed before administration. Group 2 animals were fasted overnight before administration and were fed at 4 hours post oral administration.
At each time point, approximately 0.5 mL of whole blood was collected into K2EDTA tubes. […] Plasma samples were stored at approximately −80° C. until analyzed by LC-MS.

[6] = biorelevant non-sink dissolution experiment; assay type: physicochemical; settings: 37° C.
Method: The preliminary dissolution performance of the SD samples and bulk Compound 1 was tested in a biorelevant non-sink dissolution experiment. About 0.5 mg SD samples were dispersed into 6 mL SGF medium firstly and stirred magnetically with 250 rpm at 37° C. After 30 min, 5 mL cFaSSIF-V2 (2×) medium was added into the above medium and adjusted the pH to 6.5 with 100 μL NaHCO3 (80 g/L). At each time point of 15 and 30 min in SGF and 15, 30, 60, 120 min in FaSSIF, 0.5 mL suspension was taken out and centrifuged. The supernatants were analyzed by HPLC.

[7] = test system: recurrent genital herpes (HSV); settings: human, oral, 100, 200, 400 and 1200 mg vs placebo; cited from earlier work
[8] = test system: genital HSV; settings: human, oral, cited from earlier work
[9] = test system: genital HSV-2; settings: human, oral, cited from earlier work
[10] = cited from earlier work

With `C[C@@H](c1ccccc1)N(CC(=O)Nc1ccc(-c2csc(N)n2)cc1)C(=O)c1ccncc1` [BILS-179 BS] as the compound, how does the “adverse events in early clinical trials” value [1] read?
The value was “suspended in early clinical trials due to adverse events”.

Which results are given for `Cc1nc(N2CCCN(c3ccc(-c4cc(F)ccc4F)cc3)C2=O)sc1S(N)(=O)=O` [Compound 1, 2-(3-(2′,5′-difluoro-[1,1′-biphenyl]-4-yl)-2-oxotetrahydropyrimidin-1(2H)-yl)-4-methylthiazole-5-sulfonamide]?
carbonic anhydrase I inhibition [2]: no or low levels of carbonic anhydrase inhibition; carbonic anhydrase II inhibition [3]: no or low levels of carbonic anhydrase inhibition; predicted human clearance [4]: 0.06 L/h; clearance without versus with oral charcoal [5]: slower; overall exposure without versus with oral charcoal [5]: higher; Concentration in FaSSIF at 45 min ([6]; FaSSIF (pH 6.5), 45 min): 0.14 µg/mL; Concentration in FaSSIF at 60 min ([6]; FaSSIF (pH 6.5), 60 min): 0.12 µg/mL; Concentration in FaSSIF at 90 min ([6]; FaSSIF (pH 6.5), 90 min): 0.14 µg/mL; Concentration in FaSSIF at 150 min ([6]; FaSSIF (pH 6.5), 150 min): 0.12 µg/mL; Concentration in SGF at 15 min ([6]; SGF (pH 1.7), 15 min): 0.10 µg/mL; Concentration in SGF at 30 min ([6]; SGF (pH 1.7), 30 min): 0.07 µg/mL

With `Cc1cccc(C)c1N(CC(=O)Nc1ccc(-c2ncon2)cc1)C(=O)C1CCS(=O)(=O)CC1` [amenamevir] as the compound, how does the “time to lesion healing” value [7] read?
The value was “only significantly different between the very highest 1200 mg single dose group and the placebo-tested group”.

What about the “adverse events in early clinical trials” value [1] of the same compound?
The value was “suspended from early HSV clinical trials due to adverse events”.

For `Cc1nc(N(C)C(=O)Cc2ccc(-c3ccccn3)cc2)sc1S(N)(=O)=O` [pritelivir, N-Methyl-N-(4-methyl-5-sulfamoyl-1,3-thiazol-2-yl)-2-[4-(pyridin-2-yl)phenyl]acetamide], which “break-through shedding at 75 mg daily” value ([8]; 75 mg daily) is on record?
The value was “break-through shedding remained”.

And the antiviral effect ([8]; daily 75 mg vs weekly 400 mg)?
The antiviral effect was “An oral daily dose of 75 mg had the greatest antiviral effect and this was found to be superior to the less frequently administered weekly dose of 400 mg”.

What about the “number of days with lesions” value ([8]; genital herpes) of the same compound?
The value was “reduced the number of days with lesions”.

What about the “rate of genital HSV shedding” value ([8]; high doses, 28 days) of the same compound?
Its value is “reduced the rate of genital HSV shedding”.

What about the “genital swabs with HSV shedding” value ([9]; 100 mg daily after 400 mg loading dose, 28 days) of the same compound?
The value was 2.4%.

And the “free fraction of total plasma concentration” value [10]?
The value was 2-3%.

What about the protein binding ([10]; plasma) of the same compound?
The protein binding was 97-98%.

For `CC(C)[C@H](N)C(=O)OCCOCn1cnc2c(=O)[nH]c(N)nc21` [valacyclovir], which “genital swabs with HSV shedding” value ([9]; 500 mg daily) is on record?
The value was 5.3%.
